18 compounds from patent US10239832B2, “N-(1-hydroxy-3-(pyrrolidinyl)propan-2-yl)pyrrolidine-3-carboxamide derivatives as glucosylceramide synthase inhibitors” (BIOMARIN PHARMACEUTICAL INC., priority 2013, dated 2019) can be followed below.

The target in the experiment is T1, GCS (Canis lupus familiaris, UniProt A0A8I3MXG6).
T1 construct: endogenous in cells; host or cells: MDCK (Madin-Darby canine kidney) cells, whole-cell lysate
T1 sequence (A0A8I3MXG6 1-394): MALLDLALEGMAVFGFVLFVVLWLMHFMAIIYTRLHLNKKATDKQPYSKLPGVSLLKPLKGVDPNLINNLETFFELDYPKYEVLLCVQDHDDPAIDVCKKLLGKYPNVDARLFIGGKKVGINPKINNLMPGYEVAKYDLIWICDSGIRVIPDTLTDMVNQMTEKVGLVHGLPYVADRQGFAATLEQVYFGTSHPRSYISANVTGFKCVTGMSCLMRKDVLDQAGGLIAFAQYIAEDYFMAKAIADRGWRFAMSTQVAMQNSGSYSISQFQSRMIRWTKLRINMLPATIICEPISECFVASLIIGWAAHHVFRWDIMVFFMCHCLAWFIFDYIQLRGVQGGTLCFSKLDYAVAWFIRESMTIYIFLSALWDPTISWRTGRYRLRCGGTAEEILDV
In words: GCS enzymatic assay (MDCK cell lysate, NBD-ceramide to glucosylceramide, LC/MS). The format is biochemical, canine. As to conditions: Table 2, the table does not say which of the assays; for IC50: class symbols A, B, C, read-out: Data Range (IC50 values); for Data Range (% inhibition): class symbols D, E, F, NA (not active). The essentials:
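Dog MDCK cell lysate served as enzyme source, with NBD-ceramide turned over to glucosylceramide and 0.1% DMSO as mock control. The reaction was stopped with acetonitrile. Both lipids were quantified by LC/MS/MS in ESI positive MRM mode against a tolbutamide internal standard, giving IC50 or percent inhibition.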

In the case of `O=C(N[C@H](CN1CCCC1)[C@H](O)c1ccc(OC2CCOCC2)c(Cl)c1)[C@@H]1CCN(c2ccc3ccsc3c2)C1` [Compound 92, (R)-1-(benzo[b]thiophen-6-yl)-N-((1R,2R)-1-(3-chloro-4-((tetrahydro-2H-pyran-4-yl)oxy)phenyl)-1-hydroxy-3-(pyrrolidin-1-yl)propan-2-yl)pyrrolidine-3-carboxamide], the IC50 – broadly, the concentration at which inhibition is half-maximal – lay within 1 to 30 nM.
Take `Cn1ncc2ccc(N3CCC(C(=O)N[C@H](CN4CCCC4)[C@H](O)c4ccc5c(c4)OCCO5)C3)cc21` (stereo partly drawn) [Compound 61C, N-((1R,2R)-1-(2,3-dihydrobenzo[b][1,4]dioxin-6-yl)-1-hydroxy-3-(pyrrolidin-1-yl)propan-2-yl)-1-(1-methyl-1H-indazol-6-yl)pyrrolidine-3-carboxamide]: the IC50 was 1 to 30 nM.
Same read-out and setting: the result for `O=C(N[C@H](CN1CCCC1)[C@H](O)c1ccc(OC2CC2)cc1)[C@@H]1CCN(c2ccccc2)C1` [Compound 149, (R)-N-((1R,2R)-1-(4-cyclopropoxyphenyl)-1-hydroxy-3-(pyrrolidin-1-yl)propan-2-yl)-1-phenylpyrrolidine-3-carboxamide] reads 1 to 30 nM.
With `O=C(NC(CN1CCCC1)[C@H](O)c1cc(F)c2c(c1)OCCO2)[C@H]1CCN(c2ccc3ccccc3n2)C1` (stereo in doubt) [Compound 68C, (S)-N-((1R,2S)-1-(8-fluoro-2,3-dihydrobenzo[b][1,4]dioxin-6-yl)-1-hydroxy-3-(pyrrolidin-1-yl)propan-2-yl)-1-(quinolin-2-yl)pyrrolidine-3-carboxamide], the “Data Range (% inhibition)” value is “F (1-49% (or less than 50%))”.
In the case of `C=COc1ccc([C@@H](O)[C@@H](CN2CCCC2)NC(=O)[C@@H]2CCN(c3ccc(Cl)cc3)C2)cc1Cl` [Compound 147, (R)-N-((1R,2R)-1-(3-chloro-4-(vinyloxy)phenyl)-1-hydroxy-3-(pyrrolidin-1-yl)propan-2-yl)-1-(4-chlorophenyl)pyrrolidine-3-carboxamide], the half-inhibitory concentration (IC50) was in the range of 1 to 30 nM.
On to `O=C(N[C@H](CN1CCCC1)[C@H](O)c1ccc(OC2CC2)c(Cl)c1)C1CCN(c2ccc(C(F)(F)F)cc2)C1` (stereo partly drawn) [Compound 6, N-((1R,2R)-1-(3-chloro-4-cyclopropoxyphenyl)-1-hydroxy-3-(pyrrolidin-1-yl)propan-2-yl)-1-(4-(trifluoromethyl)phenyl)pyrrolidine-3-carboxamide], for which the “Data Range (% inhibition)” value is recorded as “F (1-49% (or less than 50%))”.
Still for that read-out and setting: to `O=C(N[C@H](CN1CCCC1)[C@H](O)c1ccc(N2CCOCC2)c(Cl)c1)[C@@H]1CCN(c2ccc(Cl)cc2)C1` [Compound 74, (R)-N-((1R,2R)-1-(3-chloro-4-morpholinophenyl)-1-hydroxy-3-(pyrrolidin-1-yl)propan-2-yl)-1-(4-chlorophenyl)pyrrolidine-3-carboxamide] belongs “D (75-100%)”.
In the case of `CC(C)(O)COc1ccc([C@@H](O)[C@@H](CN2CCCC2)NC(=O)[C@@H]2CCN(c3ccc4ccccc4c3)C2)cc1Cl` [Compound 107, (R)-N-((1R,2R)-1-(3-chloro-4-(2-hydroxy-2-methylpropoxy)phenyl)-1-hydroxy-3-(pyrrolidin-1-yl)propan-2-yl)-1-(naphthalen-2-yl)pyrrolidine-3-carboxamide], the IC50 was 1 to 30 nM.
With `O=C(N[C@H](CN1CCCC1)[C@H](O)c1ccc2c(c1)OCCO2)[C@H]1CCN(c2ccc(F)cc2)C1` [Compound 24C, (S)-N-((1R,2R)-1-(2,3-dihydrobenzo[b][1,4]dioxin-6-yl)-1-hydroxy-3-(pyrrolidin-1-yl)propan-2-yl)-1-(4-fluorophenyl)pyrrolidine-3-carboxamide], the “Data Range (% inhibition)” value is listed as “NA (not active—a negative value was generated for % inhibition)”.
With `O=C(N[C@H](CN1CCCCC1)[C@H](O)c1ccc2c(c1)OCCO2)[C@@H]1CCN(c2ccc(Cl)cc2)C1` [Compound 43, (R)-1-(4-chlorophenyl)-N-((1R,2R)-1-(2,3-dihydrobenzo[b][1,4]dioxin-6-yl)-1-hydroxy-3-(piperidin-1-yl)propan-2-yl)pyrrolidine-3-carboxamide], the “Data Range (% inhibition)” value is reported as “F (1-49% (or less than 50%))”.
Consider `O=C(N[C@H](CN1CCCC1)[C@H](O)c1ccc(OC2CC2)c(Cl)c1)[C@@H]1CCN(c2ccc(Cl)c(Oc3ccc(F)cc3)c2)C1` [Compound 128, (R)-1-(4-chloro-3-(4-fluorophenoxy)phenyl)-N-((1R,2R)-1-(3-chloro-4-cyclopropoxyphenyl)-1-hydroxy-3-(pyrrolidin-1-yl)propan-2-yl)pyrrolidine-3-carboxamide], for which the 50% inhibitory concentration (IC50) fell in the range of 1 to 30 nM.
For the compound `O=C(N[C@H](CN1CCCC1)[C@H](O)c1ccc2c(c1)OCCO2)C1CCN(c2ccc(F)cc2)C1` (stereo partly drawn) [Compound 24B, N-((1R,2R)-1-(2,3-dihydrobenzo[b][1,4]dioxin-6-yl)-1-hydroxy-3-(pyrrolidin-1-yl)propan-2-yl)-1-(4-fluorophenyl)pyrrolidine-3-carboxamide], the concentration for half-maximal inhibition (IC50) lay in the range of 1 to 30 nM.
With `O=C(N[C@H](CN1CCCC1)[C@H](O)c1ccc(OCC(F)(F)F)nc1)[C@@H]1CCN(c2ccc(Cl)cc2)C1` [Compound 33, (R)-1-(4-chlorophenyl)-N-((1R,2R)-1-hydroxy-3-(pyrrolidin-1-yl)-1-(6-(2,2,2-trifluoroethoxy)pyridin-3-yl)propan-2-yl)pyrrolidine-3-carboxamide], the “Data Range (% inhibition)” value is on record as “F (1-49% (or less than 50%))”.
As to `O=C(N[C@H](CN1CCCC1)[C@H](O)c1cc(F)c2c(c1)OCCO2)[C@@]1(O)CCN(c2ccc(Cl)cc2)C1` [Compound 154C, (R)-1-(4-chlorophenyl)-N-((1R,2R)-1-(8-fluoro-2,3-dihydrobenzo[b][1,4]dioxin-6-yl)-1-hydroxy-3-(pyrrolidin-1-yl)propan-2-yl)-3-hydroxypyrrolidine-3-carboxamide], the IC50 was 100 to 1000 nM.
With `O=C(N[C@H](CN1CCCC1)[C@H](O)c1ccc2c(c1)OCCO2)[C@H]1CCN(C2Cc3ccccc3C2)C1` [Compound 55B, (S)-1-(2,3-dihydro-1H-inden-2-yl)-N-((1R,2R)-1-(2,3-dihydrobenzo[b][1,4]dioxin-6-yl)-1-hydroxy-3-(pyrrolidin-1-yl)propan-2-yl)pyrrolidine-3-carboxamide], the “Data Range (% inhibition)” value is listed as “F (1-49% (or less than 50%))”.
Still for that read-out and setting: to `CC(C)Oc1ccc([C@@H](O)[C@@H](CN2CCCC2)NC(=O)[C@@H]2CCN(c3ccc(Cl)cc3)C2)cn1` [Compound 29, (R)-1-(4-chlorophenyl)-N-((1R,2R)-1-hydroxy-1-(6-isopropoxypyridin-3-yl)-3-(pyrrolidin-1-yl)propan-2-yl)pyrrolidine-3-carboxamide] belongs “F (1-49% (or less than 50%))”.
Turning to `O=C(N[C@H](CN1CCC1)[C@H](O)c1cc(F)c2c(c1)OCCO2)[C@@H]1CCN(c2ccc3cc(Cl)ccc3c2)C1` [Compound 89, (R)-N-((1R,2R)-3-(azetidin-1-yl)-1-(8-fluoro-2,3-dihydrobenzo[b][1,4]dioxin-6-yl)-1-hydroxypropan-2-yl)-1-(6-chloronaphthalen-2-yl)pyrrolidine-3-carboxamide], the IC50 lay within 1 to 30 nM.
As to `CCCCN1CCC(C(=O)N[C@H](CN2CCCC2)[C@H](O)c2ccc3c(c2)OCCO3)C1` (stereo partly drawn) [Compound 30, 1-butyl-N-((1R,2R)-1-(2,3-dihydrobenzo[b][1,4]dioxin-6-yl)-1-hydroxy-3-(pyrrolidin-1-yl)propan-2-yl)pyrrolidine-3-carboxamide], the “Data Range (% inhibition)” value was “NA (not active—a negative value was generated for % inhibition)”.
